One assay relates to MET. The experiment in a line: MET biochemical kinase assay. Further details: species or system human; concentration or dose not given beside the values. The gist of the method: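 Lysate-derived MET, or chimeric receptors, is immobilised on plates through an antibody to the human MET cytoplasmic region. Compounds are added along with kinase buffer supplying ATP and divalent metal ions, and receptor autophosphorylation is quantified by anti-phosphotyrosine ELISA.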

In another assay the target is T1, EGFR (Homo sapiens, UniProt P00533).
T1 construct: Add 7 ug A431 cell lysate per well (EGFR source); endogenous in cells; host or cells: A431
T1 sequence (P00533 25-1210): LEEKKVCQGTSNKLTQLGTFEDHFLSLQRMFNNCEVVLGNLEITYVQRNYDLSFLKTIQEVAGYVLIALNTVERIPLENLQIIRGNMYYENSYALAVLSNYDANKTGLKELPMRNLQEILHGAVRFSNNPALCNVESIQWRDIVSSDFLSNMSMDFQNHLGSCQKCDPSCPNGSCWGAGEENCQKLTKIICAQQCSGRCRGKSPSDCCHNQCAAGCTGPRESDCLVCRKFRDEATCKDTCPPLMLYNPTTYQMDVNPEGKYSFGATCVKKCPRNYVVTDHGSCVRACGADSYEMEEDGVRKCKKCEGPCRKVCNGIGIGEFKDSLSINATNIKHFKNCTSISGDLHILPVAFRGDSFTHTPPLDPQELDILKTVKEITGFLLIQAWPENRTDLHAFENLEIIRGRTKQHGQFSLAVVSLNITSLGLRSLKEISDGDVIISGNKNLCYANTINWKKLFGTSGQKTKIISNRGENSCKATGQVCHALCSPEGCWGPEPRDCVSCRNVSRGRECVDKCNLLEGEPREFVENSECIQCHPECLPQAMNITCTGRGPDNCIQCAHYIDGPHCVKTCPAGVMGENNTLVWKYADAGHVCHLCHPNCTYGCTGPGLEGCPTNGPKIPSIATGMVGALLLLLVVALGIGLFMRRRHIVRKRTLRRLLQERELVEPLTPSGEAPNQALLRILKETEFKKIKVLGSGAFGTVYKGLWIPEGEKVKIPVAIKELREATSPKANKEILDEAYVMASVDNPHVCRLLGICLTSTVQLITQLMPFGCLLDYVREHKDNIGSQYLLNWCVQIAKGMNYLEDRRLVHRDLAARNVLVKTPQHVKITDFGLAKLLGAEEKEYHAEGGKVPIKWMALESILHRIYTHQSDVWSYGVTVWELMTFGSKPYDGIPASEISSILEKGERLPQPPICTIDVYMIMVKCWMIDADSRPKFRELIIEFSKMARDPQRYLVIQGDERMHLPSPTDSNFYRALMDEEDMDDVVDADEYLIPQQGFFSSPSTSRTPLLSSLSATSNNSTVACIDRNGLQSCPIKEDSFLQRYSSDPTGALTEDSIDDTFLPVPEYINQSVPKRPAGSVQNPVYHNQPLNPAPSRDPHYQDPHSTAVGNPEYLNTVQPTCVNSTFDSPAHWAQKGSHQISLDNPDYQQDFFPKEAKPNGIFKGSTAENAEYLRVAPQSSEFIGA
Put plainly: EGFR ELISA assay (in vitro kinase activity, EGFR captured from A431 cell lysate). In kind it is biochemical. Set-up: concentration or dose not given beside the values. The gist of the method:
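EGFR from A431 lysate was captured on plates coated with anti-EGFR antibody. Compounds were added 30 min before a 5 min phosphorylation with 3 µM ATP/5 mM MnCl2, which was stopped with 20 mM EDTA. Phosphotyrosine was detected with rabbit anti-phosphotyrosine, then a peroxidase-conjugated secondary and ABTS/H2O2, read at 410 nm.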
In general terms: In an ELISA, binding on a coated surface is turned into a signal by an enzyme label.

Experimental findings from patent publication EP1247803A2, “Indolinone compounds suitable for modulation of protein kinases” (Sugen, Inc., priority 1996, dated 1998) are described below.

In the case of `Cc1c(Br)ccc2c1C(=Cc1c[nH]cn1)C(=O)N2` [10725/C11], the “Met Kinase % Inhibition” value with MET was found to be 48.4%. The “Biochem EGFR %Inhibition” value on EGFR was -22.1%.
`O=C1Nc2c(Br)cc(Br)cc2C1=Cc1cc(O)c2c(c1O)CCCC2` [10726/A07]: the “Met Kinase % Inhibition” value in the assay on MET came out at 101.4%. The “Biochem EGFR %Inhibition” value at EGFR turned out to be 88.7%.
For the molecule `COC(=O)Cc1c(Cl)[nH]c(C=C2C(=O)Nc3ccc(Br)c(C)c32)c1C(=O)OC` [10725/C09], the “Met Kinase % Inhibition” value in the assay with MET turned out to be 24.1%. Also, the “Biochem EGFR %Inhibition” value on EGFR is reported as 23.6%.
On to `O=C1Nc2ccc(S(=O)(=O)N3CCOCC3)cc2C1=Cc1c[nH]cn1` [10725/F11], for which the “Met Kinase % Inhibition” value in the assay with MET turned out to be 25.7%. For the same molecule, the “Biochem EGFR %Inhibition” value at EGFR is 20.8%.
`COc1ccc(Br)c(C=C2C(=O)Nc3ccc(S(=O)(=O)Nc4ccc(C(F)(F)F)cc4)cc32)c1O` [10725/E03]: the “Met Kinase % Inhibition” value with MET is on record as 60.9%. Besides, the “Biochem EGFR %Inhibition” value at EGFR was -10.3%.
As for `O=C1Nc2ccc(S(=O)(=O)N3CCOCC3)cc2C1=Cc1ccc(Br)cc1` [10717/F08], the “Met Kinase % Inhibition” value in the assay on MET was found to be 64.0%. In addition, the “Biochem EGFR %Inhibition” value on EGFR is reported as -23.4%.
In the case of `O=C1Nc2ccc(S(=O)(=O)N3CCOCC3)cc2C1=Cc1ccc[nH]1` [10717/F09], the “Met Kinase % Inhibition” value with MET was determined as 41.4%. On EGFR, the “Biochem EGFR %Inhibition” value is reported as 1.8%.
Consider `COC(=O)Cc1c(Cl)[nH]c(C=C2C(=O)Nc3ccc(S(=O)(=O)N4CCOCC4)cc32)c1C(=O)OC` [10725/F09], for which the “Met Kinase % Inhibition” value in the assay on MET turned out to be 48.5%. Besides, on EGFR, the “Biochem EGFR %Inhibition” value amounted to 32.2%.
For the molecule `O=C1Nc2ccc(S(=O)(=O)Nc3ccc(C(F)(F)F)cc3)cc2C1=Cc1sccc1Br` [10725/E02], in the assay with MET, the “Met Kinase % Inhibition” value worked out at 40.2%. Further, the “Biochem EGFR %Inhibition” value at EGFR is given as 4.3%.
As for `O=C1Nc2ccc(F)cc2C1=C1C(=O)Nc2ccc(I)cc21` [10726/B08], in the assay on MET, the “Met Kinase % Inhibition” value amounted to 60.2%. In addition, the “Biochem EGFR %Inhibition” value at EGFR turned out to be 23.6%.
With `Cc1ccc(C=C2C(=O)Nc3ccc(S(=O)(=O)Nc4ccc(C(F)(F)F)cc4)cc32)o1` [10725/E04], the “Met Kinase % Inhibition” value in the assay on MET was found to be 59.0%. At EGFR, the “Biochem EGFR %Inhibition” value was found to be 31.2%.
For the molecule `Cc1c(Br)ccc2c1C(=Cc1cc(O)c3c(c1O)CCCC3)C(=O)N2` [10726/C07], the “Met Kinase % Inhibition” value in the assay on MET came out at 84.9%. Further, the “Biochem EGFR %Inhibition” value on EGFR is given as 40.8%.
In the case of `COc1ccc(Br)c(C=C2C(=O)Nc3ccc(Br)c(C)c32)c1O` [10725/C03], in the assay on MET, the “Met Kinase % Inhibition” value came out at 72.9%. Moreover, on EGFR, the “Biochem EGFR %Inhibition” value is listed as -12.7%.
For the molecule `O=C1Nc2ccc(CCCl)cc2C1=Cc1sccc1Br` [10725/G02], the “Met Kinase % Inhibition” value in the assay on MET is on record as 30.8%. For the same molecule, the “Biochem EGFR %Inhibition” value on EGFR was -20.5%.
Turning to `CNS(=O)(=O)c1ccc2c(c1)C(=Cc1ccc(N3CCOCC3)cc1)C(=O)N2` [10725/D08], the “Met Kinase % Inhibition” value in the assay on MET is 39.2%. The “Biochem EGFR %Inhibition” value on EGFR amounted to 20.0%.
`Cc1cc(C=C2C(=O)Nc3ccc(Br)c(C)c32)[nH]n1` [10725/C05]: in the assay on MET, the “Met Kinase % Inhibition” value was determined as 31.7%. At EGFR, the “Biochem EGFR %Inhibition” value is reported as -21.9%.
`CNS(=O)(=O)c1ccc2c(c1)C(=Cc1c[nH]cn1)C(=O)N2` [10725/D11]: the “Met Kinase % Inhibition” value with MET was found to be 100.5%. Further, the “Biochem EGFR %Inhibition” value on EGFR is recorded as -12.5%.
The matching figures for `COC(=O)Cc1c(Cl)[nH]c(C=C2C(=O)Nc3ccc(CCCl)cc32)c1C(=O)OC` [10725/G09]: 4.7% and 6.5%.
In the case of `Cc1c(Br)ccc2c1C(=Cc1ccc(Br)o1)C(=O)N2` [10726/C05], the “Met Kinase % Inhibition” value in the assay on MET worked out at 58.0%. Besides, the “Biochem EGFR %Inhibition” value on EGFR amounted to 16.7%.
As to `Cc1cc(C=C2C(=O)Nc3ccc(CCCl)cc32)[nH]n1` [10725/G05], the “Met Kinase % Inhibition” value in the assay with MET is recorded as 15.6%. The “Biochem EGFR %Inhibition” value at EGFR was determined as 68.7%.
For `Cc1c(Br)ccc2c1C(=Cc1ccc(N3CCN(C=O)CC3)cc1)C(=O)N2` [10725/C07], in that order: 38.8% and -16.5%.
Turning to `CNS(=O)(=O)c1ccc2c(c1)C(=Cc1cc(C)n[nH]1)C(=O)N2` [10725/D05], the “Met Kinase % Inhibition” value with MET is given as 24.5%. In addition, on EGFR, the “Biochem EGFR %Inhibition” value is -19.7%.
On to `O=C1Nc2ccc(I)cc2C1=Cc1cc(O)c2c(c1O)CCCC2` [10726/B07], for which, in the assay on MET, the “Met Kinase % Inhibition” value came to 98.5%. The “Biochem EGFR %Inhibition” value on EGFR is reported as 72.4%.
The matching figures for `O=C1Nc2ccc(CCCl)cc2C1=Cc1c[nH]cn1` [10725/G11]: 25.7% and -32.4%.
For `Cc1cn(C)cc1C=C1C(=O)Nc2ccc(I)cc21` [10726/B06], in that order: 76.1% and 6.6%.
The matching figures for `O=C1Nc2ccc(S(=O)(=O)Nc3ccc(C(F)(F)F)cc3)cc2C1=Cc1c[nH]cn1` [10725/E11]: 9.6% and -36.0%.
Take `Cc1cc(C=C2C(=O)Nc3ccc(Br)c(C)c32)cc(C(C)(C)C)c1O` [10726/C04]: in the assay with MET, the “Met Kinase % Inhibition” value is on record as 91.7%. Moreover, at EGFR, the “Biochem EGFR %Inhibition” value amounted to 58.4%.
On to `COC(=O)Cc1c(Cl)[nH]c(C=C2C(=O)Nc3ccc(S(=O)(=O)Nc4ccc(C(F)(F)F)cc4)cc32)c1C(=O)OC` [10725/E09], for which the “Met Kinase % Inhibition” value in the assay on MET came to 22.4%. Besides, the “Biochem EGFR %Inhibition” value on EGFR is given as 31.4%.
For the molecule `O=C1Nc2c(Br)cc(Br)cc2C1=Cc1ccc(F)cc1` [10717/A05], in the assay with MET, the “Met Kinase % Inhibition” value stood at 35.6%. The “Biochem EGFR %Inhibition” value at EGFR is 16.6%.
In the case of `CNS(=O)(=O)c1ccc2c(c1)C(=Cc1ccc(C)o1)C(=O)N2` [10725/D04], the “Met Kinase % Inhibition” value in the assay on MET stood at 55.1%. Moreover, the “Biochem EGFR %Inhibition” value at EGFR was 4.3%.
`Cc1ccc(C=C2C(=O)Nc3ccc(CCCl)cc32)o1` [10725/G04]: the “Met Kinase % Inhibition” value in the assay with MET is given as 47.1%. The “Biochem EGFR %Inhibition” value on EGFR is on record as -12.3%.
Take `CNS(=O)(=O)c1ccc2c(c1)C(=Cc1c(O)cc(C)cc1OC)C(=O)N2` [10725/D06]: the “Met Kinase % Inhibition” value in the assay on MET worked out at 24.7%. Moreover, the “Biochem EGFR %Inhibition” value on EGFR is on record as -26.4%.
With `O=C1Nc2ccc(S(=O)(=O)Nc3ccc(C(F)(F)F)cc3)cc2C1=Cc1ccc(N2CCOCC2)cc1` [10725/E08], the “Met Kinase % Inhibition” value in the assay with MET is given as 39.7%. The “Biochem EGFR %Inhibition” value at EGFR is reported as 14.2%.
For the molecule `Cc1c(Br)ccc2c1C(=Cc1c(Br)cnn1-c1ccc(Cl)cc1)C(=O)N2` [10725/C10], the “Met Kinase % Inhibition” value in the assay on MET is given as -0.6%. Further, on EGFR, the “Biochem EGFR %Inhibition” value was 5.3%.
On to `O=C1Nc2ccc(CCCl)cc2C1=Cc1cccs1` [10717/G03], for which, in the assay on MET, the “Met Kinase % Inhibition” value worked out at 4.5%. The “Biochem EGFR %Inhibition” value on EGFR was found to be 18.8%.
Regarding `CNS(=O)(=O)c1ccc2c(c1)C(=Cc1sccc1Br)C(=O)N2` [10725/D02], the “Met Kinase % Inhibition” value in the assay with MET is 14.0%. Also, the “Biochem EGFR %Inhibition” value on EGFR was -23.9%.
Turning to `CNS(=O)(=O)c1ccc2c(c1)C(=Cc1c(Br)ccc(OC)c1O)C(=O)N2` [10725/D03], the “Met Kinase % Inhibition” value with MET is 72.9%. The “Biochem EGFR %Inhibition” value on EGFR is recorded as -2.5%.
On to `O=C1Nc2ccc(S(=O)(=O)Nc3ccc(C(F)(F)F)cc3)cc2C1=Cc1c(Br)cnn1-c1ccc(Cl)cc1` [10725/E10], for which the “Met Kinase % Inhibition” value in the assay with MET is given as -4.7%. Further, the “Biochem EGFR %Inhibition” value at EGFR worked out at 6.1%.
Take `O=CN1CCN(c2ccc(C=C3C(=O)Nc4ccc(S(=O)(=O)N5CCOCC5)cc43)cc2)CC1` [10725/F07]: in the assay with MET, the “Met Kinase % Inhibition” value is 67.8%. Also, the “Biochem EGFR %Inhibition” value on EGFR stood at 16.4%.
For `CNS(=O)(=O)c1ccc2c(c1)C(=Cc1[nH]c(Cl)c(CC(=O)OC)c1C(=O)OC)C(=O)N2` [10725/D09], in that order: 28.0% and 4.3%.
On to `COc1cc(C)cc(O)c1C=C1C(=O)Nc2ccc(CCCl)cc21` [10725/G06], for which the “Met Kinase % Inhibition” value with MET is 35.8%. Also, at EGFR, the “Biochem EGFR %Inhibition” value is listed as -19.9%.
